Reference: patent US20200306377A1, “METHODS FOR ENHANCING 5-AMINOLEVULINIC ACID-BASED MEDICAL IMAGING AND PHOTOTHERAPY” (priority 2017, published 2020)

Assays:
Assay type in all cases: cell-based
[1] = system: SKBR3 human breast cancer cells; test: Resistance to photo-bleaching after uptake and irradiation; details: after uptake, 1 minute of irradiation
Procedure: (§1) A 5-ALA solution in deionized H2O at 100 mM was prepared and added when required at a final concentration of 200 uM (6 uL per well). After the predetermined incubation time, cells are fixed using the following protocol. The medium was removed and the cells gently rinsed with PBS buffer (2 mL per well), two mL fixation medium (3.7% formaldehyde in PBS) was added followed by incubation at room temperature (RT) for 15 min. The fixation medium was removed and fresh PBS was added to gently rinse the cells. The coverslips were removed from the wells and mounted on glass slides. […] Within each study, all microscopic settings (filter, light intensity, exposure time, and magnification) were identical. Microscopic images of the cells after treatment with various types of QDs and/or 5-ALA are shown in FIGS. 2A-2L through FIGS. 4A-4K.

[2] = system: SKBR3 human breast cancer cells; test: Comparison of 5-ALA intracellular uptake, fluorescence microscopy; details: incubation 3, 5, 16 h, QDs about 50 ug/mL, free 5-ALA 200 uM
Procedure: as §1, with “SKBR3 human breast cancer cells are cultivated in 6 well plates supplied with glass coverslips using McCoy's 5a medium from ATCC (3 mL per well). […]” for “A 5-ALA”, “identical.” for “identical. Microscopic images of the cells after treatment with various types of QDs and/or 5-ALA are shown in FIGS. 2A-2L through FIGS. 4A-4K.”

[3] = system: normal human fibroblast cells (HFF); test: Labeling of normal fibroblast cells; details: 16 hrs, QD 50 μg/mL, free 5-ALA 0.2 mM

Q: Which results are given for `NCC(=O)CCC(=O)O` [free 5-ALA, 5-Aminolevulinic acid]?
A: photo-bleaching [1]: rapid photo-bleaching and signal disappearance; emission at 630 nm [2]: weaker emission; labeling of normal cells [3]: lack of labeling
